Values after ≈ are worked out from the molar mass of the structure shown. Like-named read-outs stand apart in the source and are kept apart here.
Legend:
Format in all cases: cell-based
[1] = test system: Bacillus subtilis ATCC 6633; test: antimicrobial activity, MIC
[2] = test system: Staphylococcus aureus FDA 209P; test: antimicrobial activity, MIC
[3] = test system: Staphylococcus aureus Terajima; test: antimicrobial activity, MIC
[4] = test system: Staphylococcus aureus Smith; test: antimicrobial activity, MIC
[5] = test system: Staphylococcus epidermidis ATCC 12228; test: antimicrobial activity, MIC
Sarcina lutea ATCC 9341 = test: antimicrobial activity, MIC
[6] = test system: Streptococcus faecalis IFO 12964; test: antimicrobial activity, MIC
[7] = test system: Micrococcus lysodeixticus IFO 3333; test: antimicrobial activity, MIC
[8] = test system: Candida albicans NHL 4019; test: antimicrobial activity, MIC
Candida albicans Yu-1200 = test: antimicrobial activity, MIC
[9] = test system: Saccharomyces cerevisiae ATCC 9763; test: antimicrobial activity, MIC
Saccharomyces ruxii 6507 = test: antimicrobial activity, MIC; conditions: Saccharomyces ruxii 6507
[10] = test system: Aspergillus niger ATCC 9642; test: antimicrobial activity, MIC
[11] = test system: Penicillium chrysogenum ATCC 6010; test: antimicrobial activity, MIC
[12] = test system: Trichophyton mentagrophytes QM 248; test: antimicrobial activity, MIC
[13] = test system: Trichophyton mentagrophytes IFO 5812; test: antimicrobial activity, MIC
[14] = test system: Trichophyton tonsurans IFO 5928; test: antimicrobial activity, MIC
[15] = test system: Trichophyton rubrum NHL J; test: antimicrobial activity, MIC; conditions: Trichophyton rubrum NHL J
[16] = test system: Microsporum gypseum IFO 8231; test: antimicrobial activity, MIC
[17] = test system: Microsporum audounii IFO 6074; test: antimicrobial activity, MIC
[18] = test system: Microsporum cookei IFO 8303; test: antimicrobial activity, MIC
[19] = test system: Epidermophyton floccosum IFO 9045; test: antimicrobial activity, MIC
[20] = test system: Aspergillus oryzae IMF 4014; test: antimicrobial activity, MIC
[21] = test system: Cladosporium fulvum IAM 5006; test: antimicrobial activity, MIC
[22] = test system: Fusarium moniliforme IAM 5062; test: antimicrobial activity, MIC
[23] = test system: Helminthosporium sesamum IAM 5012; test: antimicrobial activity, MIC
[24] = test system: Pyricularia oryzae IAM 5016; test: microbe, parasite or virus in culture
[25] = test system: Debaryomyces kloeckeri IFO 0015; test: antimicrobial activity, MIC
[26] = test system: Gibberella fujikuroi IAM 8046; test: antimicrobial activity, MIC
[27] = Staphylococcus aureus, FDA209P, read-out: MIC
[28] = Staphylococcus aureus, read-out: MIC
[29] = Staphylococcus epidermidis ATCC 12228
[30] = Enterococcus faecalis, IFO12964, Streptococcus faecalis IFO 12964, read-out: MIC
[31] = Micrococcus lysodeixticus IFO 3333
[32] = Candida albicans, NHL4019, Candida albicans NHL 4019, read-out: MIC
[33] = Saccharomyces cerevisiae, ATCC9763, Saccharomyces cerevisiae ATCC 9763, read-out: MIC
[34] = Penicillium chrysogenum ATCC 6010
[35] = Trichophyton mentagrophytes, QM248, Trichophyton mentagrophytes QM 248, read-out: MIC
[36] = Trichophyton mentagrophytes, IFO5812, Trichophyton mentagrophytes IFO 5812, read-out: MIC
[37] = Trichophyton tonsurans, IFO5928, Trichophyton tonsurans IFO 5928, read-out: MIC
[38] = Trichophyton rubrum, read-out: MIC
[39] = Nannizzia gypsea, IFO8231, Microsporum gypseum IFO 8231, read-out: MIC
[40] = Microsporum, IFO6074, Microsporum audounii IFO 6074, read-out: MIC
[41] = Epidermophyton floccosum, IFO9045, Epidermophyton floccosum IFO 9045, read-out: MIC
[42] = Fulvia fulva, IAM5006, Cladosporium fulvum IAM 5006, read-out: MIC
[43] = Helminthosporium, IAM5012, Helminthosporium sesamum IAM 5012, read-out: MIC
[44] = Pyricularia oryzae, IAM5016, Pyricularia oryzae IAM 5016

Q: What does the source list for `CCCOc1ccccc1C(=CSCc1ccccc1)n1ccnc1` (single isomer, unassigned) [Compound 3, 1-(2-n-propyloxyphenyl)-1-imidazolyl-2-benzylthioethylene]?
A: MIC ([1]; Bacillus subtilis ATCC 6633): 1.56 µg/mL (≈ 4.45 µM); MIC [2, 27]: 12.5 µg/mL (≈ 35.7 µM); MIC [3, 28]: 6.25 µg/mL (≈ 17.8 µM); MIC [4, 28]: 6.25 µg/mL (≈ 17.8 µM); MIC [5, 29]: 3.12 µg/mL (≈ 8.9 µM); MIC (Sarcina lutea ATCC 9341; Sarcina lutea ATCC 9341): 1.56 µg/mL (≈ 4.45 µM); MIC [6, 30]: 6.25 µg/mL (≈ 17.8 µM); MIC [7, 31]: 0.78 µg/mL (≈ 2.23 µM); MIC [8, 32]: 50 µg/mL (≈ 143 µM); MIC (Candida albicans Yu-1200; YU1200, read-out: MIC): > 100 µg/mL; MIC [9, 33]: < 0.2 µg/mL; MIC (Saccharomyces ruxii 6507; read-out: MIC): < 0.2 µg/mL; MIC ([10]; Aspergillus niger ATCC 9642): 0.39 µg/mL (≈ 1.11 µM); MIC [11, 34]: 50 µg/mL (≈ 143 µM); MIC [12, 35]: < 0.2 µg/mL; MIC [13, 36]: < 0.2 µg/mL; MIC [14, 37]: < 0.2 µg/mL; MIC [15, 38]: < 0.2 µg/mL; MIC [16, 39]: < 0.2 µg/mL; MIC [17, 40]: < 0.2 µg/mL; MIC ([18]; Microsporum cookei IFO 8303): 6.25 µg/mL (≈ 17.8 µM); MIC [19, 41]: 3.12 µg/mL (≈ 8.9 µM); MIC ([20]; Aspergillus oryzae IMF 4014): 6.25 µg/mL (≈ 17.8 µM); MIC [21, 42]: 12.5 µg/mL (≈ 35.7 µM); MIC ([22]; Fusarium moniliforme IAM 5062): > 100 µg/mL; MIC [23, 43]: < 0.2 µg/mL; MIC [24, 44]: < 0.2 µg/mL; MIC ([25]; IFO0015, read-out: MIC): 6.25 µg/mL (≈ 17.8 µM); MIC ([26]; Gibberella fujikuroi IAM 8046): 25 µg/mL (≈ 71.3 µM)

Q: How did the MIC ([1]; Bacillus subtilis ATCC 6633) turn out when `CCCOc1ccccc1C(=CSCc1ccccc1)n1ccnc1` (single isomer, unassigned) [Compound 4] was run?
A: 6.25 µg/mL (≈ 17.8 µM)

Q: And the MIC [2]?
A: 25 µg/mL (≈ 71.3 µM)

Q: And the MIC [3]?
A: 12.5 µg/mL (≈ 35.7 µM)

Q: And the MIC [4]?
A: 12.5 µg/mL (≈ 35.7 µM)

Q: And the MIC [5, 29]?
A: 12.5 µg/mL (≈ 35.7 µM)

Q: And the MIC (Sarcina lutea ATCC 9341; Sarcina lutea ATCC 9341)?
A: 6.25 µg/mL (≈ 17.8 µM)

Q: And the MIC ([6]; Streptococcus faecalis IFO 12964)?
A: 12.5 µg/mL (≈ 35.7 µM)

Q: What about the MIC [7, 31] of the same molecule?
A: 3.12 µg/mL (≈ 8.9 µM)

Q: What about the MIC ([8]; Candida albicans NHL 4019) of the same molecule?
A: 25 µg/mL (≈ 71.3 µM)

Q: And the MIC (Candida albicans Yu-1200)?
A: > 100 µg/mL

Q: And the MIC ([9]; Saccharomyces cerevisiae ATCC 9763)?
A: < 0.2 µg/mL

Q: And the MIC (Saccharomyces ruxii 6507)?
A: < 0.2 µg/mL

Q: And the MIC ([10]; Aspergillus niger ATCC 9642)?
A: 1.56 µg/mL (≈ 4.45 µM)

Q: What about the MIC [11, 34] of the same molecule?
A: 3.12 µg/mL (≈ 8.9 µM)

Q: And the MIC ([12]; Trichophyton mentagrophytes QM 248)?
A: < 0.2 µg/mL

Q: What about the MIC ([13]; Trichophyton mentagrophytes IFO 5812) of the same molecule?
A: < 0.2 µg/mL

Q: What about the MIC ([14]; Trichophyton tonsurans IFO 5928) of the same molecule?
A: < 0.2 µg/mL

Q: And the MIC [15]?
A: < 0.2 µg/mL

Q: What about the MIC ([16]; Microsporum gypseum IFO 8231) of the same molecule?
A: < 0.2 µg/mL

Q: What about the MIC ([17]; Microsporum audounii IFO 6074) of the same molecule?
A: < 0.2 µg/mL

Q: And the MIC ([18]; Microsporum cookei IFO 8303)?
A: 1.56 µg/mL (≈ 4.45 µM)

Q: And the MIC ([19]; Epidermophyton floccosum IFO 9045)?
A: 1.78 µg/mL (≈ 5.08 µM)

Q: What about the MIC ([20]; Aspergillus oryzae IMF 4014) of the same molecule?
A: 1.56 µg/mL (≈ 4.45 µM)

Q: And the MIC ([21]; Cladosporium fulvum IAM 5006)?
A: 25 µg/mL (≈ 71.3 µM)

Q: What about the MIC ([22]; Fusarium moniliforme IAM 5062) of the same molecule?
A: 0.78 µg/mL (≈ 2.23 µM)

Q: And the MIC ([23]; Helminthosporium sesamum IAM 5012)?
A: < 0.2 µg/mL

Q: And the MIC ([24]; Pyricularia oryzae IAM 5016)?
A: < 0.2 µg/mL

Q: And the MIC [25]?
A: 6.25 µg/mL (≈ 17.8 µM)

Q: What about the MIC ([26]; Gibberella fujikuroi IAM 8046) of the same molecule?
A: 0.78 µg/mL (≈ 2.23 µM)

Q: With `CCCCOc1ccccc1C(=CSCc1ccccc1)n1ccnc1` (single isomer, unassigned) [Compound 8] as the molecule, how does the MIC ([1]; Bacillus subtilis, ATCC6633, Bacillus subtilis ATCC 6633, read-out: MIC) read?
A: 3.12 µg/mL (≈ 8.56 µM)

Q: And the MIC [2, 27]?
A: 25 µg/mL (≈ 68.6 µM)

Q: What about the MIC [3, 28] of the same molecule?
A: 6.25 µg/mL (≈ 17.1 µM)

Q: And the MIC [4, 28]?
A: 6.25 µg/mL (≈ 17.1 µM)

Q: What about the MIC ([5]; Staphylococcus epidermidis, ATCC12228, Staphylococcus epidermidis ATCC 12228, read-out: MIC) of the same molecule?
A: 6.25 µg/mL (≈ 17.1 µM)

Q: And the MIC (Sarcina lutea ATCC 9341; Micrococcus luteus, ATCC9341, Sarcina lutea ATCC 9341, read-out: MIC)?
A: 3.12 µg/mL (≈ 8.56 µM)

Q: And the MIC [6, 30]?
A: > 100 µg/mL

Q: What about the MIC ([7]; Micrococcus, IFO3333, Micrococcus lysodeixticus IFO 3333, read-out: MIC) of the same molecule?
A: 1.56 µg/mL (≈ 4.28 µM)

Q: And the MIC [8, 32]?
A: > 100 µg/mL

Q: And the MIC (Candida albicans Yu-1200; YU1200, read-out: MIC)?
A: > 100 µg/mL

Q: And the MIC [9, 33]?
A: < 0.2 µg/mL

Q: What about the MIC (Saccharomyces ruxii 6507; read-out: MIC) of the same molecule?
A: < 0.2 µg/mL

Q: And the MIC ([10]; Aspergillus niger, ATCC9642, Aspergillus niger ATCC 9642, read-out: MIC)?
A: 12.5 µg/mL (≈ 34.3 µM)

Q: What about the MIC ([11]; Penicillium chrysogenum, ATCC6010, Penicillium chrysogenum ATCC 6010, read-out: MIC) of the same molecule?
A: 12.5 µg/mL (≈ 34.3 µM)

Q: What about the MIC [12, 35] of the same molecule?
A: 0.39 µg/mL (≈ 1.07 µM)

Q: What about the MIC [13, 36] of the same molecule?
A: 0.39 µg/mL (≈ 1.07 µM)

Q: And the MIC [14, 37]?
A: < 0.2 µg/mL

Q: And the MIC [15, 38]?
A: < 0.2 µg/mL

Q: What about the MIC [16, 39] of the same molecule?
A: 0.39 µg/mL (≈ 1.07 µM)

Q: What about the MIC [17, 40] of the same molecule?
A: < 0.2 µg/mL

Q: And the MIC ([18]; Paraphyton cookei, IFO8303, Microsporum cookei IFO 8303, read-out: MIC)?
A: 12.5 µg/mL (≈ 34.3 µM)

Q: What about the MIC [19, 41] of the same molecule?
A: 6.25 µg/mL (≈ 17.1 µM)

Q: What about the MIC ([20]; Aspergillus oryzae, IMF4014, Aspergillus oryzae IMF 4014, read-out: MIC) of the same molecule?
A: 12.5 µg/mL (≈ 34.3 µM)

Q: And the MIC [21, 42]?
A: > 100 µg/mL

Q: And the MIC ([22]; Fusarium verticillioides, IAM5062, Fusarium moniliforme IAM 5062, read-out: MIC)?
A: 12.5 µg/mL (≈ 34.3 µM)

Q: What about the MIC [23, 43] of the same molecule?
A: 0.78 µg/mL (≈ 2.14 µM)

Q: What about the MIC [24, 44] of the same molecule?
A: < 0.2 µg/mL

Q: What about the MIC ([25]; IFO0015, read-out: MIC) of the same molecule?
A: 6.25 µg/mL (≈ 17.1 µM)

Q: And the MIC ([26]; Fusarium fujikuroi, IAM8046, Gibberella fujikuroi IAM 8046, read-out: MIC)?
A: 6.25 µg/mL (≈ 17.1 µM)
